Measurements: patent US10647708B2, “Tetrahydroisoquinoline derived PRMT5-inhibitors” (CTXT PTY LTD, priority 2014, dated 2020)

molecular target: Full-length PRMT5 enzyme co-expressed with MEP50 (Homo sapiens (Human), UniProt O14744); assay: Revised PRMT5 Biochemical Assay; conditions: 1 μM peptide substrate, 1 μM S-Adenosyl methionine, 4 hours at 37 degree Celsius, Transcreener EPIGEN fluorescence polarisation
Experimental: Compounds of the invention may be tested for in vitro activity in the following assay: A histone H4 derived peptide is used as substrate (amino acid sequence: […]NH2). Full-length PRMT5 enzyme (NCBI Reference sequence NP_006100.2) was co-expressed with Hiss-MEP50 in insect cells and purified via Nickel immobilized metal affinity and gel filtration chromatography (“the enzyme”).
The 6 μL reactions are run in Greiner brand black 384-well low volume assay plates. All reactions contained assay buffer (phosphate buffered saline, 0.01% (v/v) Tween-20, 0.01% (w/v) albumin from chicken egg white, 1 mM Dithiothreitol, 1 μM peptide substrate, 1 μM S-Adenosyl methionine, and 15 ng/reaction enzyme, with the enzyme being omitted from negative control reactions. Compounds were added in a volume of 100 nL from dilution series prepared in DMSO, positive and negative control reactions receiving the same volume DMSO without compound. The plates were sealed with adhesive seals and incubated for 4 hours at 37 degree Celsius. Reaction progress was measured using the Transcreener™ EPIGEN methyltransferase assay (BellBrook Labs, Madison, Wis.) as recommended by the manufacturer. To each reaction 2 μL detection mix were added, containing coupling enzymes, fluorescence polarisation tracer, and AMP antibody. Plates were incubated for 90 minutes before being read on a PerkinElmer EnVision™ plate reader in fluorescence polarisation mode. IC50 values were obtained from the raw readings by calculating percent inhibition (% I) for each reaction relative to controls on the same plate (% I=(I−CN)/(CP−CN) where CN/CP are the averages of the negative/positive reactions, respectively), then fitting the % I data vs. compound concentration [I] to % I=(A+((B−A)/(1+((C/[I])^D)))) where A is the lower asymptote, B is the upper asymptote, C is the IC50 value, and D is the slope.

Chain of Full-length PRMT5 enzyme co-expressed with MEP50 (O14744 whole entry): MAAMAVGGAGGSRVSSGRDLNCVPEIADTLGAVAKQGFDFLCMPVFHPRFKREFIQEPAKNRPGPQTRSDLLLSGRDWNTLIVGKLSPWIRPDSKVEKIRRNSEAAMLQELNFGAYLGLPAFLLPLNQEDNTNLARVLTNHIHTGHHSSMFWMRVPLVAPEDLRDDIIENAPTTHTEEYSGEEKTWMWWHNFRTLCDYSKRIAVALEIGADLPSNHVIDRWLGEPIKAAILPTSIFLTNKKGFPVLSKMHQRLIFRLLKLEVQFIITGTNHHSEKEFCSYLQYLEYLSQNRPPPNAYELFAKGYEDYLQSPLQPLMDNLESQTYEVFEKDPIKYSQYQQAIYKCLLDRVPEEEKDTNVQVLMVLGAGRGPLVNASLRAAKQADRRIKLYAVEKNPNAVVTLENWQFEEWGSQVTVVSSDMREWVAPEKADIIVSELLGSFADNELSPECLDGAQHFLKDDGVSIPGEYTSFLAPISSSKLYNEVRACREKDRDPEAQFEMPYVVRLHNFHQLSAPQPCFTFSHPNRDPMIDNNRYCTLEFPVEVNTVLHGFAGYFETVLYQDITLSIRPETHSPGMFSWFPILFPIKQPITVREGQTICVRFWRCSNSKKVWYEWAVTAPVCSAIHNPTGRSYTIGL
Chain of Full-length PRMT5 enzyme co-expressed with MEP50 (Q9BQA1 whole entry partner): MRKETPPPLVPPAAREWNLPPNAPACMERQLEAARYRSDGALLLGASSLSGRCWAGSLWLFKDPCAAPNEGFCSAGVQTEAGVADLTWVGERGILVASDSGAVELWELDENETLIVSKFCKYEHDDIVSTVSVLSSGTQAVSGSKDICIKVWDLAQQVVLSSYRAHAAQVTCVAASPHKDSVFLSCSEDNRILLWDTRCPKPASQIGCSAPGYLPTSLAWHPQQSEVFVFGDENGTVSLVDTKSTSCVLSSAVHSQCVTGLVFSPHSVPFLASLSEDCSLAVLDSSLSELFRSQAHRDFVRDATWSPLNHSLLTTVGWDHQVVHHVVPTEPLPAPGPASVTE

Row | SMILES | IC50 [µM]
1 | O=C(NCCC(O)CN1CCc2ccccc2C1)c1ccc(S(=O)(=O)C(F)(F)F)cc1 (stereo not shown) [Compound 2] | 1.13
2 | O=C(NCCC(O)CN1CCc2ccccc2C1)c1ccc([S+]([O-])C(F)(F)F)cc1 (stereo not shown) [Compound 3] | 0.925
3 | CS(=O)(=O)c1ccccc1OCC(=O)NCCC(O)CN1CCc2ccccc2C1 (stereo not shown) [Compound 4] | 51.7
4 | O=C(NCCC(O)CN1CCc2ccccc2C1)c1ccc(C(F)(F)F)cc1 (stereo not shown) [Compound 5] | 1.33
5 | O=C(NCCC(O)CN1CCc2ccccc2C1)c1ccc(N2CCCCC2=O)cc1 (stereo not shown) [Compound 6] | 13.1
6 | COc1ccc(-n2cc(C(=O)NCCC(O)CN3CCc4ccccc4C3)cn2)cc1 (stereo not shown) [Compound 7] | 1.94
7 | COc1ccc(-c2cc(C(=O)NCCC(O)CN3CCc4ccccc4C3)on2)cc1 (stereo not shown) [Compound 8] | 3.09
8 | O=C(NCCC(O)CN1CCc2ccccc2C1)c1ccc2oc(=O)[nH]c2c1 (stereo not shown) [Compound 9] | 4.35
9 | Cc1nonc1COc1ccc(C(=O)NCCC(O)CN2CCc3ccccc3C2)cc1 (stereo not shown) [Compound 10] | 3.98
10 | O=C(NCCC(O)CN1CCc2ccccc2C1)c1nnc(-c2ccccc2)o1 (stereo not shown) [Compound 11] | 39.2
11 | O=C(NCCC(O)CN1CCc2ccccc2C1)c1ccn(Cc2ccccc2)c(=O)c1 (stereo not shown) [Compound 12] | 1.59
12 | Cc1c(C(=O)NCCC(O)CN2CCc3ccccc3C2)cnn1-c1ccncc1 (stereo not shown) [Compound 13] | 7.09
13 | O=C(NCCC(O)CN1CCc2ccccc2C1)c1ccc(N2CCOCC2)nc1 (stereo not shown) [Compound 14] | 0.91
14 | N#Cc1cccc(C(=O)NCCC(O)CN2CCc3ccccc3C2)c1 (stereo not shown) [Compound 16] | 13
15 | O=C(NCCC(O)CN1CCc2ccccc2C1)c1cccnc1 (stereo not shown) [Compound 17] | 15
16 | O=C(NCCC(O)CN1CCc2ccccc2C1)c1cccc(Cl)c1 (stereo not shown) [Compound 18] | 9.79
17 | O=C(NCCC(O)CN1CCc2ccccc2C1)c1ccc(OC(F)(F)F)cc1 (stereo not shown) [Compound 19] | 0.319
18 | O=C(NCCC(O)CN1CCc2ccccc2C1)c1ccc(S(F)(F)(F)(F)F)cc1 (stereo not shown) [Compound 20] | 0.214
19 | O=C(NCCC(O)CN1CCc2ccccc2C1)c1ccc(OC(F)F)cc1 (stereo not shown) [Compound 21] | 0.415
20 | CS(=O)(=O)c1ccc(C(=O)NCCC(O)CN2CCc3ccccc3C2)cc1 (stereo not shown) [Compound 22] | 7.02
21 | O=C(NCCC(O)CN1CCc2ccccc2C1)c1ccc2c(c1)OC(F)(F)O2 (stereo not shown) [Compound 23] | 1.69

Continued, values first:

Row | IC50 [µM] | SMILES
22 | 25.4 | Cc1cccc(C(=O)NCCC(O)CN2CCc3ccccc3C2)n1 (stereo not shown) [Compound 24]
23 | 6.35 | O=C(NCCC(O)CN1CCc2ccccc2C1)c1cccc(-c2ccnnc2)c1 (stereo not shown) [Compound 25]
24 | 3.75 | C[S+]([O-])c1ccc(C(=O)NCCC(O)CN2CCc3ccccc3C2)cc1 (stereo not shown) [Compound 26]
25 | 5.62 | COc1ccc(C(=O)NCCC(O)CN2CCc3ccccc3C2)cc1-c1cncnc1 (stereo not shown) [Compound 27]
26 | 12.3 | O=C(NCCC(O)CN1CCc2ccccc2C1)c1cnn(-c2ccccn2)c1 (stereo not shown) [Compound 28]
27 | 10.8 | Cn1ccc(C(=O)NCCC(O)CN2CCc3ccccc3C2)cc1=O (stereo not shown) [Compound 29]
28 | 3.12 | O=C(NCCC(O)CN1CCc2ccccc2C1)c1ccc(C(=O)N2CCCC2)cc1 (stereo not shown) [Compound 30]
29 | 3.16 | O=C(NCCC(O)CN1CCc2ccccc2C1)c1ccc(C(=O)N2CCC2)cc1 (stereo not shown) [Compound 31]
30 | 3.54 | CN(C)C(=O)c1ccc(C(=O)NCCC(O)CN2CCc3ccccc3C2)cc1 (stereo not shown) [Compound 32]
31 | 7.45 | Cc1c(C(=O)NCCC(O)CN2CCc3ccccc3C2)cnn1-c1ccccn1 (stereo not shown) [Compound 33]
32 | 56.1 | O=C(NCCC(O)CN1CCc2ccccc2C1)c1noc(-c2ccccc2)n1 (stereo not shown) [Compound 34]
33 | 1.21 | O=C(NCCC(O)CN1CCc2ccccc2C1)c1coc(-c2ccccc2)n1 (stereo not shown) [Compound 35]
34 | 1.2 | Cc1nn(C)cc1-c1cc(C(=O)NCCC(O)CN2CCc3ccccc3C2)no1 (stereo not shown) [Compound 36]
35 | 1.19 | Cn1cc(-c2cc(C(=O)NCCC(O)CN3CCc4ccccc4C3)no2)cn1 (stereo not shown) [Compound 37]
36 | 2.88 | O=C(NCCC(O)CN1CCc2ccccc2C1)c1ccnn1-c1cccnc1 (stereo not shown) [Compound 38]
37 | 1.22 | Cc1nnc(-c2cccc(C(=O)NCCC(O)CN3CCc4ccccc4C3)c2)o1 (stereo not shown) [Compound 39]
38 | 0.769 | O=C(NCCC(O)CN1CCc2ccccc2C1)c1ccc(-c2ccccc2)cc1 (stereo not shown) [Compound 40]
39 | 5.29 | O=C(NCCC(O)CN1CCc2ccccc2C1)c1cccc(-c2ccccc2)c1 (stereo not shown) [Compound 41]
40 | 2.83 | Cc1nnc(-c2ccc(C(=O)NCCC(O)CN3CCc4ccccc4C3)cc2)o1 (stereo not shown) [Compound 42]
41 | 106 | O=C(NCCC(O)CN1CCc2ccccc2C1)c1cncc(Cl)n1 (stereo not shown) [Compound 43]
42 | 13.7 | O=C(NCCC(O)CN1CCc2ccccc2C1)c1ccnc(Cl)c1 (stereo not shown) [Compound 44, 2-Chloro-N-(4-(3,4-dihydroisoquinolin-2(1H)-yl)-3-hydroxybutyl)isonicotinamide]
43 | 5.23 | O=C(NCCC(O)CN1CCc2ccccc2C1)c1cccc(C(=O)N2CCOCC2)c1 (stereo not shown) [Compound 45, N-(4-(3,4-dihydroisoquinolin-2(1H)-yl)-3-hydroxybutyl)-3-(morpholine-4-carbonyl)benzamide]
44 | 0.186 | CC(=O)N1CCC(Nc2cc(C(=O)NCCC(O)CN3CCc4ccccc4C3)ccn2)CC1 (stereo not shown) [Compound 46]

test system: symmetrical dimethylation of arginine (Histone H4 Arginine 3) in cell line TE11; assay: Revised PRMT5 Biomarker Assay; assay type: cell-based; conditions: Homo sapiens, TE-11; TE11 cells, 72 hours incubation, anti-Di-Methyl Histone H4 Arginine 3 immunofluorescence, plate-reader based
Experimental: Compounds of the invention may be tested for potency to inhibit symmetrical dimethylation of arginine in the following assay:
The cell line TE11 was seeded at a density of 6,000 cells per well in 96 well optical quality tissue culture plates in DME medium and 10% foetal bovine serum, and allowed to adhere for 5 hours under standard culture conditions (37 degree Celsius, 5% CO2). Compound dilutions prepared in DMSO were added to the medium, with negative control wells reserved for treatment with DMSO only and positive controls receiving a potent PRMT5 inhibitor compound at 1 μM concentration. After incubation for 72 hours, the cells were fixed with 3.7% formaldehyde in PBS for 30 minutes at room temperature, washed with phosphate buffer saline and blocked with Odyssey blocking buffer (LI-COR, Lincoln, Nebr.). Rabbit anti-Di-Methyl Histone H4 Arginine 3 specific antibody (Epigentek) in Odyssey blocking buffer was added and incubated for 14 hours at 4 degree Celsius. After washing, anti-rabbit secondary antibody labelled with Alexa647 dye (LifeTechnologies) and Hoechst 33342 (1 μg/mL, SigmaAldrich) were added for 1 hour incubation. Plates were washed and read on a PerkinElmer Envision 2103 in fluorescence intensity scanning mode (24 scans across the well area). The methylation level information was corrected for the number of cells as expressed by the Hoechst 33342 stain, converted to percent inhibition relative to controls on the same plate and the data fitted against a four-parameter logistic model to determine the 50% inhibitory concentration (IC50 plate-reader based). Alternatively, the plates were imaged on a PerkinElmer Phenix high content imaging platform. Using a Columbus image analysis pipeline, individual nuclei were located by Hoechst 33342 stain and the methylation level was calculated from the Alexa647-related intensity in the same area. The resulting mean intensity per cell was directly converted to percent inhibition as outlined above (IC50, imager based)).

Row | SMILES | IC50 [µM]
45 | O=C(NCCC(O)CN1CCc2ccccc2C1)c1ccc(OC(F)(F)F)cc1 (stereo not shown) [Compound 19] | 0.089
46 | O=C(NCCC(O)CN1CCc2ccccc2C1)c1ccc(S(F)(F)(F)(F)F)cc1 (stereo not shown) [Compound 20] | 0.505

Second part, the compound after the results:

Row | IC50 [µM] | SMILES
47 | 0.023 | Cc1nn(C)cc1-c1cc(C(=O)NCCC(O)CN2CCc3ccccc3C2)no1 (stereo not shown) [Compound 36]
48 | 0.048 | O=C(NCCC(O)CN1CCc2ccccc2C1)c1ccc(-c2ccccc2)cc1 (stereo not shown) [Compound 40]

same assay, conditions: TE11 cells, 72 hours incubation, anti-Di-Methyl Histone H4 Arginine 3 immunofluorescence, plate-reader based

Row | IC50 [µM] | SMILES
49 | 0.007 | CC(=O)N1CCC(Nc2cc(C(=O)NCCC(O)CN3CCc4ccccc4C3)ccn2)CC1 (stereo not shown) [Compound 46]
